These results are taken from patent US20120213860A1, “XENON-BASED INHALABLE DRUG FOR TREATING OR PREVENTING INDUCED DYSKINESIA” (L'Air Liquide Societe Anonyme Pour L'Etude Et …, priority 2009, published 2012).

This assay has as its system dyskinesias induced by levodopa. Kind of assay: levodopa-induced abnormal involuntary movements (AIMs) in rats with unilateral 6-OHDA lesions (animal model of Parkinson's disease). The assay is classed as in vivo, Sprague-Dawley rats. As for the experimental part:
More precisely, the effects of administering several gases as treatment of dyskinesias were evaluated in rats having lesions produced by unilateral injection of 6-OHDA (6-hydroxydopamine, a powerful neurotoxic) in an ascending nigrostriatal pathway (animal model of Parkinson's disease). In this model, long-term treatment of rats with levodopa induces abnormal involuntary movements (AIMs) that are similar to those in dyskinesias induced by levodopa in humans. The rats with lesions induced by 6-OHDA serving as the model of Parkinson's disease are prepared as follows. 16 Sprague-Dawley rats weighing between 250 and 300 g are kept in a room with controlled temperature (about 22° C.) with day/night cycles of 12 h, with free access to food and water. The animals receive, 30 min before the intervention, an intraperitoneal injection of pargyline (5 mg/kg; inhibitor of monoamine oxidase-B) and of desipramine (25 mg/kg; norepinephrine reuptake inhibitor). The animals are put in an anesthesia chamber with continuous flow of oxygen at 1.5 l/minute and 3% isoflurane. After anesthesia, the animals are placed in a stereotaxic frame. […] The injection site is localized according to the coordinates relative to bregma: −2.8 mm rostral, 2 mm lateral and 9 mm under the cranium (Paxinos and Watson, 1986). The rats are left to recover for 3 weeks after the lesions. The animals receive 0.05 mg/kg s.c. of apomorphine. […] The animals that remain receive an administration of 6 mg/kg of levodopa and 15 mg/kg of benzerazide (i.p.), twice a day, for 21 consecutive days. During these 21 days, the abnormal involuntary movements (AIMs) are assessed on days 1, 7, 14 and 21. The therapeutic treatments begin on day 22. They consist of administering the following to the rats by inhalation: • xenon/O2 gas mixtures (50%/50% by volume) as test gas according to the invention and; • N2/O2 gas mixtures (50%/50% by volume) as control. The gas mixtures are premixtures supplied by Air Liquide™. The gas concentrations are monitored continuously. Exposure to the gases is effected in a Plexiglas chamber with a length of 42 cm, and width and height of 26 cm. Each time, 4 or 5 rats are put in the chamber and inhale the test gas for 1 h. The chamber is supplied with fresh gas at a flow rate of 4 l/min. The abnormal involuntary movements (AIMs) are assessed for 180 min after injection of levodopa. More precisely, the animals are put in boxes (22 cm×34 cm×20 cm) and are left there for 15 minutes for them to become accustomed to their environment. Levodopa methyl ester (6 mg/kg, i.p.) is then administered at time intervals of 1 minute between rats. Each rat is observed for 1 minute at intervals of 30 minutes after injection and for a period of 180 min. Four subtypes of AIMs are assessed, namely: • Locomotor (Lo): increased movements contralateral to the lesion, • Hind limbs (Li): uncontrolled random movements of the hind limbs contralateral to the lesion, • Orolingual (Ol): excessive mastication and jaw movements with tongue protrusion, • Axial (Ax): dystonic postures or choreiform twisting of the neck and of the upper body contralaterally. The severity of the MIAs is scored from 1 to 4 according to the duration of the MIAs over an observation period of one minute: • 0.1=presence of MIAs for less than 30 s • 0.2=presence of MIAs for more than 30 s • 0.3=presence of MIAs during the minute with interruption by external stimuli • 0.4=presence of MIAs during the minute without interruption by external stimuli

The mark [1] stands for this setting: parkinsonian rat, xenon/O2 50%/50% by volume inhaled 1 h, vs control N2/O2 50%/50%, amplitude and duration.
Setting [2] is: parkinsonian rat, xenon/O2 50%/50% inhaled, vs control N2/O2.

With `[Xe]` [xenon], the “appearance of the 4 types of dyskinesias (Lo, Li, Ol, Ax)” value (animals breathing xenon/O2 (50%/50% by volume), amplitude and duration) is recorded as “greatly reduced”. Further, under setting [1], the “axial dyskinesias (Ax), kinetics following administration of L-Dopa (FIG. 3A)” value is given as “clear decrease”; the “hind limb dyskinesias (Li), kinetics following administration of L-Dopa (FIG. 4A)” value is “significant decrease”; the “locomotor dyskinesias (Lo), kinetics following administration of L-Dopa (FIG. 6A)” value is given as “large decrease”; the “orolingual dyskinesias (Ol), kinetics following administration of L-Dopa (FIG. 5A)” value was “clear decrease”. Under setting [2], the “mean value of hind limb dyskinesias (Li) from 60 to 180 min (FIG. 4B)” value is “fewer hind limb dyskinesias”, the “mean value of locomotor dyskinesias from 60 to 180 min (FIG. 6B)” value is given as “fewer locomotor dyskinesias”, the “mean value of orolingual dyskinesias (Ol) from 60 to 180 min (FIG. 5B)” value is “fewer orolingual dyskinesias” and the “mean value of the axial dyskinesias from 60 to 180 min (FIG. 3B)” value is on record as “fewer axial dyskinesias”.
